Entries after “also recorded” stand apart in the source; their conditions may differ.
Tests used:
PP-1 = PP-1 activity in extracts of treated hippocampal slice cultures; format: cell-based, rat; details: OA up to 1 μM, up to 48 h
Procedure: (§1) The rats were anesthetized with ketamine (100 mg/kg body weight) and decapitated and the hippocampi were dissected out and sliced into 400 um coronal sections by a McIllwain tissue chopper. Select slices with uninterrupted bright transparent neuronal layers were plated, 1-3 slices/filter, onto Millicell CM filters (Millipore, Bedford, Mass.). […] After 7 DIV, the cultures were maintained in physiological potassium containing 5% horse serum medium at 35° C. for at least 20 days before any treatment was applied. When the slices were treated, the reagents were applied into the culture medium. At different time points, the slices collected with a brush were washed twice in homogenizing buffer (50 mM HEPES, pH 7.0, 10 mM β-merceptoethanol [BME], 1 mM EDTA, 1 mM EGTA, 0.1 mM phenylmethyl sulfonyl fluoride [PMSF], 2.0 mM benzamidine and 2.0 μg/ml each of aprotinin, leupeptin and pepstatin) and homogenized at 4° C. using a Teflon-glass homogenizer. The homogenate was then divided into two parts, one was centrifuged at 16000×g for 15 min and the supernatant was used to assay activities of PP-2A and PP-1. The rest of the homogenate was diluted 1:1 with a phosphatase inhibitor cocktail (20 mM β-glycerophosphate, 2 mM Na3VO4 and 100 mM NaF, pH 7.0) and either used for Western blots or centrifuged at 16000×g for 15 min and the resulting supernatant used to determine the kinase activities.

PP-2A [1] = molecular target: T1, PP-2A (Rattus norvegicus, UniProt P63331); details: up to 5 μM OA, 3 h; cited from earlier work
T1 construct: the supernatant was used to assay activities of PP-2A and PP-1; from tissue; host or cells: organotypic culture of adult rat hippocampal slices; 16,000xg extract
T1 sequence (P63331 whole entry): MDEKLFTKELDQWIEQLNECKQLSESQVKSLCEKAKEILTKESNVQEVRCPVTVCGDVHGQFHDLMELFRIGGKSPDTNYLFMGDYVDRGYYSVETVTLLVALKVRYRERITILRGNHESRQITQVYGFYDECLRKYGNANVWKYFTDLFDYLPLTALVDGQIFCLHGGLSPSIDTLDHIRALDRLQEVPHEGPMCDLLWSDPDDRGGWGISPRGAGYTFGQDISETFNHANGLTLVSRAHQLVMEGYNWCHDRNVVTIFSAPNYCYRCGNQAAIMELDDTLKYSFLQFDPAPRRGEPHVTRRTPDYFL

PP-2A [2] = molecular target: T1, PP-2A; test: PP-2A activity after in vitro addition to 16,000xg extract of hippocampal slices; format: biochemical
Procedure: Activities of PP-2A and PP-1 were assayed towards [^32P] phosphorylase-a as a substrate as described previously (Gong, et al. 1994). The phosphatase activity was assayed in 20 μl of reaction mixture containing 50 mM Tris, pH 7.0, 10 mM BME, 0.1 mM EDTA, 7.5 mM caffeine, 7.5 ng/μl [^32P]phosphorylase-a and 0.06 mg/ml slice culture extract. The reaction was started by adding ^32P-phosphorylase-a. After incubation for 30 min at 30° C., 7 μl of the reaction mixture was spotted on to 31 ETCHR chromatography paper which had been prespotted with 10 μl stop solution (4 mM ATP+20% TCA). Then the ^32p released was separated from the protein-incorporated ^32P by paper chromatography in 5% TCA and 0.2 M NaCl, paper strips dried, cut and counted by Cerenkov radiation. A PP-1 specific inhibitor, inhibitor-1 (Hitken, et al. 1982) was included in the assays for PP-2A activity. PP-1 activity was calculated by subtracting the PP-2A activity from the total phosphorylase-a phosphatase activity (PP-1/PP-2A) assayed in the absence of inhibitor-1.
For this purpose we treated the hippocampal slices in culture either with 100 nM OA plus 10 μM Memantine or with OA alone for 24 h, followed by a wash and then treatment with or without Memantine for another 24 h.

tau = test: Tau phosphorylation by radioimmuno-dot-blots and 125I-Western blots of slice homogenates; format: cell-based, rat
Procedure: as §1
Triplicate samples of each homogenate were applied to nitrocellulose membrane (Schleicher and Schuell, Keene, N.H.) and dried at 37° C.

MAP2 = test: Immunohistochemical staining of MAP2 in cultured hippocampal slices; format: cell-based, rat; details: 100 nM OA 24 h, then 10 μM Memantine 24 h
Procedure: Organotypic cultures of rat hippocampal slices were prepared from 20-30 day old Wistar rats and cultured with the interface method as described previously (Stoppini, et al. 1991; Bahr, et al. 1995; Zhongrin, et al. 2000). The rats were anesthetized with ketamine (100 mg/kg body weight) and decapitated and the hippocampi were dissected out and sliced into 400 um coronal sections by a McIllwain tissue chopper. Select slices with uninterrupted bright transparent neuronal layers were plated, 1-3 slices/filter, onto Millicell CM filters (Millipore, Bedford, Mass.). For the first 2 days in vitro (DIV) cultures were maintained in 25% horse serum, 50% Basal Media-Eagle (BEM), 25% Eagle's Balanced Salt Solution (EBSS), 25 mM HEPES, 1 mM glutamine, 28 mM glucose, pH 7.2, at 32° C. in a 5% CO2 humidified atmosphere. The slice cultures were then switched to 25% horse serum, 50% BEM and EBSS modified so that the potassium concentration was 2.66 mM, for another 5 DIV. […]
After different treatments some of the hippocampal slices were fixed in periodate/lysine/paraformaldehyde solution (Mclean, et al. 1974) at 33° C. for 5 h and then kept in 1% Triton-x-100 in PBS (pH 7.4) for 72 h at room temperature to improve the penetration of the antibodies. […] Peroxidase was detected using 0.05% diaminobenzidine (DAB) and H2O2 (0.01%) for 10 min.

[3] = 100 nM OA 24 h, then 10 μM Memantine 24 h

## C=C1[C@@H](O)[C@@H]2O[C@]3(CC[C@H](/C=C/[C@@H](C)[C@@H]4CC(C)=C[C@@]5(O[C@H](C[C@@](C)(O)C(=O)O)CC[C@H]5O)O4)O3)CC[C@H]2O[C@@H]1[C@@H](O)C[C@H](C)[C@H]1O[C@@]2(CCCCO2)CC[C@H]1C [OA, Okadaic Acid]
PP-1
  inhibition of PP-1 activity: no significant changes; also recorded: no detectable inhibition
PP-2A [1]
  maximal inhibition of PP-2A: ~70%
PP-2A [2]; read-out: inhibition of PP-2A activity, 100 nM OA added to extract of untreated cultures
  inhibition at 0.1 µM: 90%
tau; OA-treated cultures
  phosphorylation of tau at Ser-214: modest increase
  phosphorylation of tau at Ser-262: marked increase; also recorded: dramatic increase
  phosphorylation of tau at Ser-422: marked increase; also recorded: dramatic increase

## CC12CC3CC(C)(C1)CC(N)(C3)C2 [Memantine, 1-amino-3,5-dimethyl adamantane]
MAP2
  MAP2 immunostaining: beaded accumulation of MAP2 in dendrites was reduced and overall staining was increased; also recorded: a decrease in the degeneration and restoration of the staining of the neuropil; also recorded: partially reversed
PP-2A [2]; Memantine 1-10 μM added to extract
  effect on PP-2A activity of extract of slices cultured with 100 nM OA for 24 h: no significant effect; also recorded: failed to restore
PP-2A [2]; Memantine 1 to 60 μM added to extract
  effect on PP-2A activity inhibited in extract with 100 nM OA: no significant effect
tau; [3]
  restoration of OA-induced tau phosphorylation at Ser-214: restored the tau phosphorylation at Ser-262 and Ser-214 to normal levels
  restoration of OA-induced tau phosphorylation at Ser-262: restored the tau phosphorylation at Ser-262 and Ser-214 to normal levels; also recorded: practically completely restored
tau; 5 μM compound, OA-treated
  restoration of phosphorylation of tau at Ser-262: restoration
tau; 2-10 μM tested, 24 h
  concentration of maximal effect on tau phosphorylation at Ser-262: 5 µM
tau; 2-10 μM tested, radioimmuno-dot-blot
  lowest concentration inhibiting OA-induced tau phosphorylation at Ser-262: 2 µM
tau; Memantine in OA-treated cultures
  effect on OA-induced phosphorylation of tau at Ser-422: no effect
tau; antibody 134d, radioimmuno-dot-blots
  effect on level of total tau: no detectable effect
